Experimental data published in US12285407B2, “Bis-indolylmethane derivatives and uses thereof” (The University of The West Indies, priority 2018, dated 2025).
Like-named read-outs stand apart in the source and are kept apart here.

Tests used:
clinical strains of MRSA = assay: Kirby Bauer disc diffusion susceptibility profile; type: cell-based, Staphylococcus aureus; details: for Zone of clearance: 35° C., 24 hours, average n=3; for Interpretive standard (resistant/susceptible): zones vs EUCAST breakpoints (Table 30)
Enterococcus faecium = assay: Checkerboard synergy (FICI) of antibiotics with SP-BIM; type: cell-based; details: Enterococcus faecium, Enterococcus faecium; for MIC: 24 h, antibiotic alone, read-out: MIC antibiotic only; for FIC of SP-BIM 13: SP-BIM 13 in combination with the labelled antibiotic
MRSA = assay: Adjuvant broth microdilution (antibiotic MIC with SP-BIM at 50 μg/mL); type: cell-based, Staphylococcus aureus; details: antibiotic alone; for MIC: Staphylococcus aureus, Table 4, read-out: MIC of antibiotic, No compound; for MIC of antibiotic, No Compound: Table 8 (series SP-BIMs 21-29)
[1] = system: clinical strains of Enterococcus faecium; assay: Kirby Bauer disc diffusion susceptibility profile; type: cell-based; details: for Zone of clearance: 35° C., 24 hours, average n=3; for Interpretive standard (resistant/susceptible): zones vs EUCAST breakpoints (Table 31)
Klebsiella pneumoniae = assay: Adjuvant broth microdilution (antibiotic MIC with SP-BIM at 50 μg/mL); type: cell-based; details: antibiotic alone; for MIC: Klebsiella pneumoniae, Table 7, read-out: MIC of antibiotic, No compound; for MIC of antibiotic, No Compound: Klebsiella pneumonia, no SP-BIM
Pseudomonas aeruginosa = assay: as above; type: cell-based; details: antibiotic alone
[2] = antibiotic in combination with SP-BIM 13

**Q.** What does the source list for `[H]/N=C(/N)N[C@H]1[C@H](O)[C@@H](O)[C@H](O[C@@H]2O[C@@H](C)[C@](O)(C=O)[C@H]2O[C@@H]2O[C@@H](CO)[C@H](O)[C@@H](O)[C@@H]2NC)[C@@H](N/C(N)=N\[H])[C@@H]1O` [Streptomycin, streptomycin]?
**A.** Zone of clearance (clinical strains of MRSA; MRSA strain 1594): 11.5 mm; Interpretive standard (resistant/susceptible) (clinical strains of MRSA; MRSA strain 1594): R; Zone of clearance (clinical strains of MRSA; MRSA strain 1621): 17.0 mm; Interpretive standard (resistant/susceptible) (clinical strains of MRSA; MRSA strain 1621): S; Zone of clearance (clinical strains of MRSA; MRSA strain 5455): 17.0 mm; Interpretive standard (resistant/susceptible) (clinical strains of MRSA; MRSA strain 5455): S; Zone of clearance (clinical strains of MRSA; MRSA strain 5872): 8.0 mm; Interpretive standard (resistant/susceptible) (clinical strains of MRSA; MRSA strain 5872): R; Zone of clearance (clinical strains of MRSA; MRSA strain 7153): 16.0 mm; Interpretive standard (resistant/susceptible) (clinical strains of MRSA; MRSA strain 7153): I; Zone of clearance (clinical strains of MRSA; MRSA strain 7172): 18.5 mm; Interpretive standard (resistant/susceptible) (clinical strains of MRSA; MRSA strain 7172): S; Zone of clearance (clinical strains of MRSA; MRSA strain 7698): 12.0 mm; Interpretive standard (resistant/susceptible) (clinical strains of MRSA; MRSA strain 7698): R; Zone of clearance (clinical strains of MRSA; MRSA strain 10132): 8.5 mm; Interpretive standard (resistant/susceptible) (clinical strains of MRSA; MRSA strain 10132): R; MIC (Enterococcus faecium; SP-BIM 9 checkerboard): 32 mg/L; MIC (Enterococcus faecium; SP-BIM 13 checkerboard): 32 mg/L; MIC in combination, SP-BIM 9 (Enterococcus faecium; SP-BIM 9 concentration in combination with the labelled antibiotic): 16 mg/L; FIC of SP-BIM 9 (Enterococcus faecium; SP-BIM 9 in combination with the labelled antibiotic): 0.1; FIC of SP-BIM 13 (Enterococcus faecium): 0.5; Interpretation (Enterococcus faecium; antibiotic + SP-BIM 9): Synergy (Synergy: FICI≤0.5); Σ FIC (Enterococcus faecium; antibiotic + SP-BIM 9): ≤0.3; Interpretation (Enterococcus faecium; antibiotic + SP-BIM 13): Additive (Additive: FICI>0.5-1.0); Σ FIC (Enterococcus faecium; antibiotic + SP-BIM 13): 0.6; MIC in combination, Antibiotic (Enterococcus faecium; antibiotic in combination with SP-BIM 9): 8 mg/L; MIC in combination, Antibiotic (Enterococcus faecium; [2]): 4 mg/L; FIC of antibiotic (Enterococcus faecium; in combination with SP-BIM 9): 0.3; FIC of antibiotic (Enterococcus faecium; in combination with SP-BIM 13): 0.1; MIC (MRSA): 63 mg/L; Zone of clearance ([1]; E. faecium strain 15134): 20 mm; Interpretive standard (resistant/susceptible) ([1]; E. faecium strain 15134): S; Zone of clearance ([1]; E. faecium strain 21024): 17 mm; Interpretive standard (resistant/susceptible) ([1]; E. faecium strain 21024): S; Zone of clearance ([1]; E. faecium strain 21955): 13 mm; Interpretive standard (resistant/susceptible) ([1]; E. faecium strain 21955): R; Zone of clearance ([1]; E. faecium strain 22003): 18 mm; Interpretive standard (resistant/susceptible) ([1]; E. faecium strain 22003): S; Zone of clearance ([1]; E. faecium strain 22870): 29 mm; Interpretive standard (resistant/susceptible) ([1]; E. faecium strain 22870): S; Zone of clearance ([1]; E. faecium strain 23227): 25 mm; Interpretive standard (resistant/susceptible) ([1]; E. faecium strain 23227): S; Zone of clearance ([1]; E. faecium strain 23230): 14 mm; Interpretive standard (resistant/susceptible) ([1]; E. faecium strain 23230): S; Zone of clearance ([1]; E. faecium strain 23668): 13 mm; Interpretive standard (resistant/susceptible) ([1]; E. faecium strain 23668): R; Zone of clearance ([1]; E. faecium strain 24169): 19 mm; Interpretive standard (resistant/susceptible) ([1]; E. faecium strain 24169): S; Zone of clearance ([1]; E. faecium strain RC63): 5 mm; Interpretive standard (resistant/susceptible) ([1]; E. faecium strain RC63): R; MIC (Klebsiella pneumoniae): 32 mg/L

**Q.** Which Zone of clearance (clinical strains of MRSA; MRSA strain 1594) does the source give for `CC[C@H]1OC(=O)[C@H](C)[C@@H](O[C@H]2C[C@@](C)(OC)[C@@H](O)[C@H](C)O2)[C@H](C)[C@@H](O[C@@H]2O[C@H](C)C[C@H](N(C)C)[C@H]2O)[C@](C)(O)C[C@@H](C)C(=O)[C@H](C)[C@@H](O)[C@]1(C)O` [Erythromycin, erythromycin] here?
**A.** 19.0 mm

**Q.** What about the “Interpretive standard (resistant/susceptible)” value (clinical strains of MRSA; MRSA strain 1594) of the same molecule?
**A.** S

**Q.** What about the Zone of clearance (clinical strains of MRSA; MRSA strain 1621) of the same molecule?
**A.** 21.5 mm

**Q.** What about the “Interpretive standard (resistant/susceptible)” value (clinical strains of MRSA; MRSA strain 1621) of the same molecule?
**A.** S

**Q.** And the Zone of clearance (clinical strains of MRSA; MRSA strain 5455)?
**A.** 20.5 mm

**Q.** And the “Interpretive standard (resistant/susceptible)” value (clinical strains of MRSA; MRSA strain 5455)?
**A.** S

**Q.** And the Zone of clearance (clinical strains of MRSA; MRSA strain 5872)?
**A.** 0.0 mm

**Q.** And the “Interpretive standard (resistant/susceptible)” value (clinical strains of MRSA; MRSA strain 5872)?
**A.** R

**Q.** What about the Zone of clearance (clinical strains of MRSA; MRSA strain 7153) of the same molecule?
**A.** 18.5 mm

**Q.** And the “Interpretive standard (resistant/susceptible)” value (clinical strains of MRSA; MRSA strain 7153)?
**A.** S

**Q.** And the Zone of clearance (clinical strains of MRSA; MRSA strain 7172)?
**A.** 17.5 mm

**Q.** And the “Interpretive standard (resistant/susceptible)” value (clinical strains of MRSA; MRSA strain 7172)?
**A.** S

**Q.** What about the Zone of clearance (clinical strains of MRSA; MRSA strain 7698) of the same molecule?
**A.** 17.5 mm

**Q.** And the “Interpretive standard (resistant/susceptible)” value (clinical strains of MRSA; MRSA strain 7698)?
**A.** S

**Q.** And the Zone of clearance (clinical strains of MRSA; MRSA strain 10132)?
**A.** 9.0 mm

**Q.** What about the “Interpretive standard (resistant/susceptible)” value (clinical strains of MRSA; MRSA strain 10132) of the same molecule?
**A.** R

**Q.** What about the “MIC of antibiotic, No Compound” value (Pseudomonas aeruginosa) of the same molecule?
**A.** >250 mg/L

**Q.** And the MIC (MRSA)?
**A.** 4 mg/L

**Q.** And the “MIC of antibiotic, No Compound” value (MRSA)?
**A.** 8 mg/L

**Q.** What about the “MIC of antibiotic, No Compound” value (Klebsiella pneumoniae) of the same molecule?
**A.** >250 mg/L

**Q.** What about the MIC (Klebsiella pneumoniae) of the same molecule?
**A.** 32 mg/L

**Q.** For `C[C@H]1c2cccc(O)c2C(=O)C2=C(O)[C@]3(O)C(=O)C(C(N)=O)=C(O)[C@@H](N(C)C)[C@@H]3[C@@H](O)[C@@H]21` [Doxycycline, doxycycline], which Zone of clearance (clinical strains of MRSA; MRSA strain 1594) is on record?
**A.** 12.5 mm

**Q.** What about the “Interpretive standard (resistant/susceptible)” value (clinical strains of MRSA; MRSA strain 1594) of the same molecule?
**A.** R

**Q.** What about the Zone of clearance (clinical strains of MRSA; MRSA strain 1621) of the same molecule?
**A.** 21.0 mm

**Q.** What about the “Interpretive standard (resistant/susceptible)” value (clinical strains of MRSA; MRSA strain 1621) of the same molecule?
**A.** S

**Q.** And the Zone of clearance (clinical strains of MRSA; MRSA strain 5455)?
**A.** 22.5 mm

**Q.** What about the “Interpretive standard (resistant/susceptible)” value (clinical strains of MRSA; MRSA strain 5455) of the same molecule?
**A.** S

**Q.** What about the Zone of clearance (clinical strains of MRSA; MRSA strain 5872) of the same molecule?
**A.** 15.0 mm

**Q.** What about the “Interpretive standard (resistant/susceptible)” value (clinical strains of MRSA; MRSA strain 5872) of the same molecule?
**A.** R

**Q.** And the Zone of clearance (clinical strains of MRSA; MRSA strain 7153)?
**A.** 18.0 mm

**Q.** And the “Interpretive standard (resistant/susceptible)” value (clinical strains of MRSA; MRSA strain 7153)?
**A.** R

**Q.** And the Zone of clearance (clinical strains of MRSA; MRSA strain 7172)?
**A.** 19.0 mm

**Q.** And the “Interpretive standard (resistant/susceptible)” value (clinical strains of MRSA; MRSA strain 7172)?
**A.** R

**Q.** And the Zone of clearance (clinical strains of MRSA; MRSA strain 7698)?
**A.** 10.5 mm

**Q.** And the “Interpretive standard (resistant/susceptible)” value (clinical strains of MRSA; MRSA strain 7698)?
**A.** R

**Q.** What about the Zone of clearance (clinical strains of MRSA; MRSA strain 10132) of the same molecule?
**A.** 12.0 mm

**Q.** What about the “Interpretive standard (resistant/susceptible)” value (clinical strains of MRSA; MRSA strain 10132) of the same molecule?
**A.** R

**Q.** And the “MIC of antibiotic, No Compound” value (Pseudomonas aeruginosa)?
**A.** 32 mg/L

**Q.** What about the MIC (Enterococcus faecium; SP-BIM 9 checkerboard) of the same molecule?
**A.** 8 mg/L

**Q.** And the MIC (Enterococcus faecium; SP-BIM 13 checkerboard)?
**A.** 8 mg/L

**Q.** And the “FIC of SP-BIM 13” value (Enterococcus faecium)?
**A.** 0.5

**Q.** And the Interpretation (Enterococcus faecium; antibiotic + SP-BIM 13)?
**A.** Additive (Additive: FICI>0.5-1.0)

**Q.** What about the “Σ FIC” value (Enterococcus faecium; antibiotic + SP-BIM 13) of the same molecule?
**A.** 0.6

**Q.** What about the “MIC in combination, Antibiotic” value (Enterococcus faecium; [2]) of the same molecule?
**A.** 1 mg/L

**Q.** And the FIC of antibiotic (Enterococcus faecium; in combination with SP-BIM 13)?
**A.** 0.1

**Q.** And the MIC (MRSA)?
**A.** 8 mg/L

**Q.** What about the “MIC of antibiotic, No Compound” value (MRSA) of the same molecule?
**A.** <0.5 mg/L

**Q.** What about the “MIC of antibiotic, No Compound” value (Klebsiella pneumoniae) of the same molecule?
**A.** 8 mg/L

**Q.** And the MIC (Klebsiella pneumoniae)?
**A.** 32 mg/L
